In US9023847B2, “Azaheterocyclic compounds” (Merck Patent GmbH, priority 2009, dated 2015):
pIC50: −log10 of the molar value.

These compounds were tested against T1, P70S6K (T412E mutant, Millipore) (Homo sapiens, UniProt P23443, T412E) (assay: p70S6K enzyme assay). Conditions: Table 1; 3 nM P70S6K, 24 μM ATP, 90 min at 25° C.; read-out: p70S6K inhibition (IC50).
T1 construct: purchased Millipore
Format: biochemical
Procedure, shortened: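 T412E-mutant P70S6K (3 nM) with 24 μM ATP and 1 μM FITC-AHA-AKRRRLSSLRA-OH S6-derived peptide in 100 mM Hepes pH 7.5, 5 mM MgCl2, 1 mM DTT, 0.015% Brij; 90 min at 25° C, EDTA stop. Phosphorylated product and substrate peptide separated and quantified by microfluidic capillary electrophoresis (Caliper LabChip 3000).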

T1 sequence (P23443 whole entry T412E): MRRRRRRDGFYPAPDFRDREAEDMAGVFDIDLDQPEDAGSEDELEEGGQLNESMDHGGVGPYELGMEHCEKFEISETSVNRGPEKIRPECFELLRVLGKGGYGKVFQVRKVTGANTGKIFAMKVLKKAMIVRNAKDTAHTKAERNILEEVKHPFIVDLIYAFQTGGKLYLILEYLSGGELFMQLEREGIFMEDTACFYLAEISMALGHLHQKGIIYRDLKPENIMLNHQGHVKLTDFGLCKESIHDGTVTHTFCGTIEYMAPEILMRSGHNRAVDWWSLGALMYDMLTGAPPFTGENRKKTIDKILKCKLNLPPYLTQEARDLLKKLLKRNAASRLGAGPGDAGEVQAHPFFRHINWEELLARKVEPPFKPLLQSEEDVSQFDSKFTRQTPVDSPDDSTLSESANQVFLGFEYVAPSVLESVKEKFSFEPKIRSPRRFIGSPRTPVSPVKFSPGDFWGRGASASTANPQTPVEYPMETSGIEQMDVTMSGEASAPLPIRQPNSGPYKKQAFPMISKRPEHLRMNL

Row | pIC50 | Compound
1 | > 7.00 | O=C(NCCc1cccc(F)c1)c1sccc1Nc1ncnc2[nH]ccc12 [Example 142, 3-(7H-Pyrrolo[2,3-d]pyrimidin-4-ylamino)-thiophene-2-carboxylic acid [2-(3-fluoro-phenyl)-ethyl]-amide]
2 | > 7.00 | O=C(NCCc1ccccc1)c1sccc1Nc1ncnc2[nH]ccc12 [Example 143, 3-(7H-Pyrrolo[2,3-d]pyrimidin-4-ylamino)-thiophene-2-carboxylic acid phenethyl-amide]
3 | > 7.00 | O=C(NCCNCc1ccccc1)c1sccc1Nc1ncnc2[nH]ccc12 [Example 148, 3-(7H-Pyrrolo[2,3-d]pyrimidin-4-ylamino)-thiophene-2-carboxylic acid [2-2-benzylamino-ethyl)-amide]
4 | > 7.00 | O=C(NC1CCCNC1)c1sccc1Nc1ncnc2[nH]ccc12 (stereo not drawn) [Example 151, 3-(7H-Pyrrolo[2,3-d]pyrimidin-4-ylamino)-thiophene-2-carboxylic acid piperidin-3-ylamide]
5 | > 7.00 | O=C(NCCc1ccc(Br)cc1)c1sccc1Nc1ncnc2[nH]ccc12 [Example 146, 3-(7H-Pyrrolo[2,3-d]pyrimidin-4-ylamino)-thiophene-2-carboxylic acid [2-(4-bromo-phenyl)-ethyl]-amide]
6 | > 7.00 | O=C(NCCc1ccc(F)cc1)c1sccc1Nc1ncnc2[nH]ccc12 [Example 145, 3-(7H-Pyrrolo[2,3-d]pyrimidin-4-ylamino)-thiophene-2-carboxylic acid [2-(4-fluoro-phenyl)-ethyl]-amide]

Same assay, conditions: class symbol; 3 nM P70S6K, 24 μM ATP; read-out: IC50 (p70S6K)

Row | pIC50 | Compound
7 | > 7.00 | CN(C)c1cc(C(=O)Nc2cccc(CNC(=O)c3sccc3Nc3ccnc4[nH]ccc34)c2)ccn1 [Example 162, 2-Dimethylamino-N-[3-({[3-(1H-pyrrolo[2,3-b]pyridin-4-ylamino)-thiophene-2-carbonyl]-amino}-methyl)-phenyl]-isonicotinamide]
8 | 6.00 to 7.00 | O=C(NCCCCO)c1sccc1Nc1ccnc2[nH]ccc12 [Example 31, 3-(1H-Pyrrolo[2,3-b]pyridin-4-ylamino)-thiophene-2-carboxylic acid (4-hydroxy-butyl)-amide]
9 | > 7.00 | NCC(NC(=O)c1sccc1Nc1ccnc2[nH]ccc12)c1ccc(C(F)(F)F)cc1 (stereo not drawn) [Example 132, 3-(1H-Pyrrolo[2,3-b]pyridin-4-ylamino)-thiophene-2-carboxylic acid [2-amino-1-(4-trifluoromethyl-phenyl)-ethyl]-amide]
10 | > 7.00 | O=C(NCCc1ccccc1)c1sccc1Nc1ncnc2[nH]ccc12 [Example 174, 3-(7H-Pyrrolo[2,3-d]pyrimidin-4-ylamino)-thiophene-2-carboxylic acid phenethylamide]
11 | > 7.00 | O=C(NCCNCc1ccccc1F)c1sccc1Nc1ccnc2[nH]ccc12 [Example 58, 3-(1H-Pyrrolo[2,3-b]pyridin-4-ylamino)-thiophene-2-carboxylic acid [2-(2-fluoro-benzylamino)-ethyl]-amide]
12 | 6.00 to 7.00 | O=C(NC[C@H]1CCCN1)c1sccc1Nc1ccnc2[nH]ccc12 [Example 93, 3-(1H-Pyrrolo[2,3-b]pyridin-4-ylamino)-thiophene-2-carboxylic acid ((R)-1-pyrrolidin-2-ylmethyl)-amide]
13 | > 7.00 | COc1cccc(CNC(=O)c2sccc2Nc2ccnc3[nH]ccc23)c1 [Example 94, 3-(1H-Pyrrolo[2,3-b]pyridin-4-ylamino)-thiophene-2-carboxylic acid 3-methoxybenzylamide]
14 | 6.00 to 7.00 | O=C(NCCN1CCOCC1)c1sccc1Nc1ccnc2[nH]ccc12 [Example 16, 3-(1H-Pyrrolo[2,3-b]pyridin-4-ylamino)-thiophene-2-carboxylic acid (2-morpholin-4-yl-ethyl)-amide]
15 | 6.00 to 7.00 | CC(C)(C)OC(=O)N1CCCC(NC(=O)c2ccsc2Nc2ccnc3[nH]ccc23)C1 (stereo not drawn) [Example 104, 3-{[2-(1H-Pyrrolo[2,3-b]pyridin-4-ylamino)-thiophene-3-carbonyl]-amino}-piperidine-1-carboxylic acid tert-butyl ester]
16 | > 7.00 | Cc1c[nH]c2ncnc(Nc3ccsc3C(=O)NCc3cccc(Cl)c3)c12 [Example 187, 3-(5-Methyl-7H-pyrrolo[2,3-d]pyrimidin-4-ylamino)-thiophene-2-carboxylic acid 3-chloro-benzylamide]
17 | > 7.00 | COc1cccc(C(CN)NC(=O)c2ccsc2Nc2ccnc3[nH]ccc23)c1 (stereo not drawn) [Example 127, 2-(1H-Pyrrolo[2,3-b]pyridin-4-ylamino)-thiophene-3-carboxylic acid [2-amino-1-(3-methoxy-phenyl)-ethyl]-amide]
18 | 6.00 to 7.00 | O=C(NCC1CCCO1)c1sccc1Nc1ccnc2[nH]ccc12 (stereo not drawn) [Example 3, 3-(1H-Pyrrolo[2,3-b]pyridin-4-ylamino)-thiophene-2-carboxylic acid (tetrahydro-furan-2-ylmethyl)-amide]
19 | > 7.00 | COc1ccc(CNCCNC(=O)c2sccc2Nc2ccnc3[nH]ccc23)cc1 [Example 40, 3-(1H-Pyrrolo[2,3-b]pyridin-4-ylamino)-thiophene-2-carboxylic acid [2-(4-methoxy-benzylamino)-ethyl]-amide]
20 | 6.00 to 7.00 | CCOC(=O)CCNC(=O)c1sccc1Nc1ccnc2[nH]ccc12 [Example 33, 3-{[3-(1H-Pyrrolo[2,3-b]pyridin-4-ylamino)-thiophene-2-carbonyl]-amino}-propionic acid ethyl ester]
21 | 6.00 to 7.00 | COc1cccc(NC(=O)c2sccc2Nc2ccnc3[nH]ccc23)c1 [Example 39, 3-(1H-Pyrrolo[2,3-b]pyridin-4-ylamino)-thiophene-2-carboxylic acid (3-methoxy-phenyl)-amide]
22 | 6.00 to 7.00 | CC(C)C[C@@H](CO)NC(=O)c1sccc1Nc1ccnc2[nH]ccc12 [Example 97, 3-(1H-Pyrrolo[2,3-b]pyridin-4-ylamino)-thiophene-2-carboxylic acid ((S)-1-hydroxymethyl-3-methyl-butyl)-amide]
23 | 6.00 to 7.00 | CC(C)[C@@H](CO)NC(=O)c1sccc1Nc1ccnc2[nH]ccc12 [Example 96, 3-(1H-Pyrrolo[2,3-b]pyridin-4-ylamino)-thiophene-2-carboxylic acid ((S)-1-hydroxymethyl-2-methyl-propyl)-amide]
24 | > 7.00 | O=C(NC1CCNC1)c1sccc1Nc1ccnc2[nH]ccc12 (stereo not drawn) [Example 6, 3-(1H-Pyrrolo[2,3-b]pyridin-4-ylamino)-thiophene-2-carboxylic acid pyrrolidin-3-ylamide]
25 | 6.00 to 7.00 | O=C(NCCc1c[nH]cn1)c1sccc1Nc1ccnc2[nH]ccc12 [Example 15, 3-(1H-Pyrrolo[2,3-b]pyridin-4-ylamino)-thiophene-2-carboxylic acid [2-(1H-imidazol-4-yl)-ethyl]-amide]
26 | > 7.00 | O=C(Nc1ccc(Cl)cc1)c1sccc1Nc1ccnc2[nH]ccc12 [Example 35, 3-(1H-Pyrrolo[2,3-b]pyridin-4-ylamino)-thiophene-2-carboxylic acid (4-chloro-phenyl)-amide]
27 | 6.00 to 7.00 | O=C(NCCS(=O)(=O)Cc1ccccc1)c1sccc1Nc1ccnc2[nH]ccc12 [Example 69, 3-(1H-Pyrrolo[2,3-b]pyridin-4-ylamino)-thiophene-2-carboxylic acid (2-phenylmethanesulfonyl-ethyl)-amide]
28 | > 7.00 | O=C(NCc1cccc(Cl)c1)c1occc1Nc1ncnc2[nH]ccc12 [Example 176, 3-(7H-Pyrrolo[2,3-d]pyrimidin-4-ylamino)-furan-2-carboxylic acid 3-chloro-benzylamide]
29 | > 7.00 | O=C(NCCNCc1ccc(OC(F)(F)F)cc1)c1sccc1Nc1ccnc2[nH]ccc12 [Example 51, 3-(1H-Pyrrolo[2,3-b]pyridin-4-ylamino)-thiophene-2-carboxylic acid [2-(4-trifluoromethoxy-benzylamino)-ethyl]-amide]
30 | > 7.00 | O=C(NCCNCc1ccc(F)cc1)c1sccc1Nc1ccnc2[nH]ccc12 [Example 62, 3-(1H-Pyrrolo[2,3-b]pyridin-4-ylamino)-thiophene-2-carboxylic acid [2-(4-fluoro-benzylamino)-ethyl]-amide]
31 | 6.00 to 7.00 | CNCCNC(=O)c1sccc1Nc1ncnc2[nH]ccc12 [Example 185, 3-(7H-Pyrrolo[2,3-d]pyrimidin-4-ylamino)-thiophene-2-carboxylic acid (2-methylamino-ethyl)-amide]
32 | > 7.00 | O=C(NCCc1cccc(Cl)c1)c1sccc1Nc1ncnc2[nH]ccc12 [Example 182, 3-(7H-Pyrrolo[2,3-d]pyrimidin-4-ylamino)-thiophene-2-carboxylic acid [2-(3-chloro-phenyl)-ethyl]-amide]
33 | 6.00 to 7.00 | O=C(NCCNS(=O)(=O)c1ccccc1)c1sccc1Nc1ccnc2[nH]ccc12 [Example 71, 3-(1H-Pyrrolo[2,3-b]pyridin-4-ylamino)-thiophene-2-carboxylic acid (2-benzenesulfonylamino-ethyl)-amide]
34 | 6.00 to 7.00 | O=C(NCCc1ccncc1)c1sccc1Nc1ccnc2[nH]ccc12 [Example 17, 3-(1H-Pyrrolo[2,3-b]pyridin-4-ylamino)-thiophene-2-carboxylic acid (2-pyridin-4-yl-ethyl)-amide]
35 | > 7.00 | O=C(NCCNCc1ccoc1)c1sccc1Nc1ccnc2[nH]ccc12 [Example 53, 3-(1H-Pyrrolo[2,3-b]pyridin-4-ylamino)-thiophene-2-carboxylic acid {2-[(furan-3-ylmethyl)-amino]-ethyl}-amide]
36 | 6.00 to 7.00 | O=C(NC(CO)C(=O)NCc1ccc(Cl)c(C(F)(F)F)c1)c1sccc1Nc1ccnc2[nH]ccc12 (stereo not drawn) [Example 89, 3-(1H-Pyrrolo[2,3-b]pyridin-4-ylamino)-thiophene-2-carboxylic acid [1-(4-chloro-3-trifluoromethyl-benzylcarbamoyl)-2-hydroxy-ethyl]-amide]
